Tests used:
[1] = target: T1, human CRF1 receptor (Homo sapiens, UniProt P34998); assay: Measurement of CRF Binding Inhibitory Rate (receptor binding experiment with 125I-CRF); settings: human CRF1 receptor expressing CHO cellular membrane fraction, 50 pM 125I-CRF, room temperature 1.5 hr, 0.05 nM to 10 μM of compound; read-out: IC50 values (CRF binding inhibition)
T1 construct: expressed in transfected cells; host or cells: CHO cells (membrane fraction)
T1 sequence (P34998 24-415): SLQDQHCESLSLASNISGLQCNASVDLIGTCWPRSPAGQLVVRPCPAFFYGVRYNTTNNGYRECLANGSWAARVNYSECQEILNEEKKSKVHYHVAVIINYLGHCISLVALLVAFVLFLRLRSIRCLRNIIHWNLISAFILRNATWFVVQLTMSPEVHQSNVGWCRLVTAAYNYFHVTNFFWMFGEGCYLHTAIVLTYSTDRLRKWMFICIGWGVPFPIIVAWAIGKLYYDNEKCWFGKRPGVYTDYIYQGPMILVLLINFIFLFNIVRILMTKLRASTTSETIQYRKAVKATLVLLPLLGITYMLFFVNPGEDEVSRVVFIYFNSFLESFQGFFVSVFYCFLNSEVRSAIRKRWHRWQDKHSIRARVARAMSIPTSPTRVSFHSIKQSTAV

SMILES | melting point [°C] | IC50 [1] [µM]
O=C(OC(c1ccc(Cl)c2nc3n(c12)CCCN3c1ccc(Cl)cc1Cl)C1CC1)C1CC1 (centres unmarked) [Example 478, 1-[9-Chloro-1-(2,4-dichlorophenyl)-1,2,3,4-tetrahydropyrimido[1,2-a]benzimidazol-6-yl](cyclopropyl)methyl cyclopropanecarboxylate] | 168 to 170 | < 1
CCC(OCC(F)(F)F)c1ccc(Cl)c2nc3n(c12)CCCN3c1ccc(OC)nc1C (centres unmarked) [Example 272, 9-Chloro-1-(6-methoxy-2-methylpyridin-3-yl)-6-[1-(2,2,2-trifluoroethoxy)propyl]-1,2,3,4-tetrahydropyrimido[1,2-a]benzimidazole] | 124 to 126 | < 1
CCN(CC)c1cccc2nc3n(c12)CCCN3c1nnc(Cl)cc1C [Example 80, 1-(6-Chloro-4-methylpyridazin-3-yl)-N,N-diethyl-1,2,3,4-tetrahydropyrimido[1,2-a]benzimidazol-6-amine] | 193 to 195 | < 1
CCC(NC(=O)OC)c1ccc(Cl)c2nc3n(c12)CCCN3c1c(Cl)cc(Cl)cc1Cl (centres unmarked) [Example 410, Methyl {1-[9-chloro-1-(2,4,6-trichlorophenyl)-1,2,3,4-tetrahydropyrimido[1,2-a]benzimidazol-6-yl]propyl}carbamate] | 231 to 233 | < 1
COc1ccc(N2CCCn3c2nc2c(Cl)ccc(C(OCC(F)(F)F)C4CC4)c23)c(C)c1 (centres unmarked) [Example 353, 9-Chloro-6-[cyclopropyl(2,2,2-trifluoroethoxy)methyl]-1-(4-methoxy-2-methylphenyl)-1,2,3,4-tetrahydropyrimido[1,2-a]benzimidazole] | 157 to 158 | < 1
CCN(CC)c1cccc2nc3n(c12)CC(OC)CCN3c1ccc(Cl)cc1Cl (centres unmarked) [Example 358, 1-(2,4-Dichlorophenyl)-N,N-diethyl-4-methoxy-2,3,4,5-tetrahydro-1H-[1,3]diazepino[1,2-a]benzimidazol-7-amine] | 120 to 122 | < 1
CCN(CC)c1cccc2nc3n(c12)CC(F)(F)CN3c1ccc(Cl)cc1Cl [Example 231, 1-(2,4-Dichlorophenyl)-N,N-diethyl-3,3-difluoro-1,2,3,4-tetrahydropyrimido[1,2-a]benzimidazol-6-amine] | 125 to 127 | < 1
CCOC(c1ccc(Cl)c2nc3n(c12)CCCN3c1ccc(Cl)cc1Cl)C(F)(F)F (centres unmarked) [Example 310, 9-Chloro-1-(2,4-dichlorophenyl)-6-(1-ethoxy-2,2,2-trifluoroethyl)-1,2,3,4-tetrahydropyrimido[1,2-a]benzimidazole] | 129 to 131 | < 1
OC(c1ccc(Cl)c2nc3n(c12)CCCN3c1ccc(Cl)cc1Cl)(C1CC1)C1CC1 [Example 108, [9-Chloro-1-(2,4-dichlorophenyl)-1,2,3,4-tetrahydropyrimido[1,2-a]benzimidazol-6-yl](dicyclopropyl)methanol] | 184 to 186 | < 1
COC(c1ccc(Cl)c2nc3n(c12)CCCN3c1ccc(Cl)cc1Cl)C(C)C (centres unmarked) [Example 235, 9-Chloro-1-(2,4-dichlorophenyl)-6-(1-methoxy-2-methylpropyl)-1,2,3,4-tetrahydropyrimido[1,2-a]benzimidazole] | 162 to 164 | < 1
COC(c1ccc(Cl)c2nc3n(c12)CCCN3c1ccc(Cl)cc1Cl)C(F)(F)F (centres unmarked) [Example 309, 9-Chloro-1-(2,4-dichlorophenyl)-6-(2,2,2-trifluoro-1-methoxyethyl)-1,2,3,4-tetrahydropyrimido[1,2-a]benzimidazole] | 161 to 163 | < 1
CCC(OC(C)=O)c1ccc(Cl)c2nc3n(c12)CCN3c1c(C)cc(Cl)cc1Cl (centres unmarked) [Example 437, 1-[8-Chloro-1-(2,4-dichloro-6-methylphenyl)-2,3-dihydro-1H-imidazo[1,2-a]benzimidazol-5-yl]propyl acetate] | 190 to 192 | < 1
CCC(NC(C)=O)c1ccc(Cl)c2nc3n(c12)CCCN3c1ccc(Cl)cc1Cl (centres unmarked) [Example 440, N-{1-[9-Chloro-1-(2,4-dichlorophenyl)-1,2,3,4-tetrahydropyrimido[1,2-a]benzimidazol-6-yl]propyl}acetamide] | 237 to 239 | < 1
CC(=O)OC(c1ccc(Cl)c2nc3n(c12)CCCN3c1ccc(Cl)cc1Cl)C1CC1 (centres unmarked) [Example 244, [9-Chloro-1-(2,4-dichlorophenyl)-1,2,3,4-tetrahydropyrimido[1,2-a]benzimidazol-6-yl](cyclopropyl)methyl acetate] | 208 to 210 | < 1
CCC(CC)c1ccc(Cl)c2nc3n(c12)CCCN3c1cnc(N(C)C)cc1C [Example 336, 5-[9-Chloro-6-(1-ethylpropyl)-3,4-dihydropyrimido[1,2-a]benzimidazol-1(2H)-yl]-N,N,4-trimethylpyridin-2-amine] | 228 to 230 | < 1
CCC(CC)c1ccc(Cl)c2nc3n(c12)CCCCN3c1ccc([S+](C)[O-])cc1C (centres unmarked) [Example 45, 10-Chloro-7-(1-ethylpropyl)-1-[2-methyl-4-(methylsulfinyl)phenyl]-2,3,4,5-tetrahydro-1H-[1,3]diazepino[1,2-a]benzimidazole] | 189 to 190 | < 1
CCCC(OC)c1ccc(Cl)c2nc3n(c12)CCCN3c1c(C)cc(Cl)cc1Cl (centres unmarked) [Example 141, 9-Chloro-1-(2,4-dichloro-6-methylphenyl)-6-(1-methoxybutyl)-1,2,3,4-tetrahydropyrimido[1,2-a]benzimidazole] | 151 to 152 | < 1
CCC(O)c1cccc2nc3n(c12)CCCCN3c1ccc(Cl)cc1Cl (centres unmarked) [Example 68, 1-[1-(2,4-Dichlorophenyl)-2,3,4,5-tetrahydro-1H-[1,3]diazepino[1,2-a]benzimidazol-7-yl]propan-1-ol] | 241 to 243 | < 1
Cc1cc(OC(C)C)ccc1N1CCCn2c1nc1c(Cl)ccc(C(OC(F)F)C(F)(F)F)c12 (centres unmarked) [Example 357, 9-Chloro-6-[1-(difluoromethoxy)-2,2,2-trifluoroethyl]-1-[2-methyl-4-(propan-2-yloxy)phenyl]-1,2,3,4-tetrahydropyrimido[1,2-a]benzimidazole] | 198 to 204 | < 1
CCC(CC)c1ccc(Cl)c2nc3n(c12)CCCCN3c1cccc2c1OC(F)(F)O2 [Example 54, 10-Chloro-1-(2,2-difluoro-1,3-benzodioxol-4-yl)-7-(1-ethylpropyl)-2,3,4,5-tetrahydro-1H-[1,3]diazepino[1,2-a]benzimidazole] | 156 to 158 | < 1
CCC(CC)c1ccc(Cl)c2nc3n(c12)CCN3c1ccc(Br)cc1Cl [Example 12, 1-(4-Bromo-2-chlorophenyl)-8-chloro-5-(1-ethylpropyl)-2,3-dihydro-1H-imidazo[1,2-a]benzimidazole] | 165 to 168 | < 1
CCC(=O)OC(CC)c1ccc(Cl)c2nc3n(c12)CCCN3c1ccc(Cl)cc1Cl (centres unmarked) [Example 241, 1-[9-Chloro-1-(2,4-dichlorophenyl)-1,2,3,4-tetrahydropyrimido[1,2-a]benzimidazol-6-yl]propyl propanoate] | 133 to 135 | < 1
CCCC(O)c1ccc(Cl)c2nc3n(c12)CCCN3c1ccc(Cl)cc1Cl (centres unmarked) [Example 114, 1-[9-Chloro-1-(2,4-dichlorophenyl)-1,2,3,4-tetrahydropyrimido[1,2-a]benzimidazol-6-yl]butan-1-ol] | 220 to 221 | < 1
CCC(CC)c1ccc(Cl)c2nc3n(c12)CCCCN3c1ccc(C(N)=O)cc1C [Example 48, 4-[10-Chloro-7-(1-ethylpropyl)-2,3,4,5-tetrahydro-1H-[1,3]diazepino[1,2-a]benzimidazol-1-yl]-3-methylbenzamide] | 185 to 186 | < 1
CCN(CC)c1ccc(F)c2nc3n(c12)CCCN3c1ccc(Cl)cc1Cl [Example 365, 1-(2,4-Dichlorophenyl)-N,N-diethyl-9-fluoro-1,2,3,4-tetrahydropyrimido[1,2-a]benzimidazol-6-amine] | 170 to 172 | < 1
CCN(CC)c1cccc2nc3n(c12)C=CCCN3c1ccc(Cl)cc1Cl [Example 362, 1-(2,4-Dichlorophenyl)-N,N-diethyl-2,3-dihydro-1H-[1,3]diazepino[1,2-a]benzimidazol-7-amine] | 105 to 106 | < 1
CCC(OC(C)=O)c1ccc(Cl)c2nc3n(c12)CCCN3c1ccc(OC)nc1C (racemic) [Example 265, 1-[9-Chloro-1-(6-methoxy-2-methylpyridin-3-yl)-1,2,3,4-tetrahydropyrimido[1,2-a]benzimidazol-6-yl]propyl acetate] | 157 to 159 | < 1
Cc1cc(C#N)ccc1N1CCCn2c1nc1c(Cl)ccc(C(OCC(F)(F)F)C3CC3)c12 (centres unmarked) [Example 402, 4-{9-Chloro-6-[cyclopropyl(2,2,2-trifluoroethoxy)methyl]-3,4-dihydropyrimido[1,2-a]benzimidazol-1(2H)-yl}-3-methylbenzonitrile] | 207 to 209 | < 1
